# Assay results as given in PubChem BioAssay AID330 (DTP/NCI, 2004).
# Values joined by “and” are separate entries in the source; they are usually repeats but may differ in a detail not shown here. Equal entries are not always repeated. Inconclusive results and toxic doses are left out.
# System: P388 leukemia ip, CD2F1 mice, survival T/C
# Assay: NCI In Vivo Anticancer Drug Screen. Data for tumor model P388 Leukemia (intraperitoneal) in CD2F1 (CDF1) mice
# Conditions: endpoint: median survival time, higher = longer survival
# In short: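 Mice carrying the transplanted tumor received test compound or vehicle. Survival was recorded in each group, and the value is the treated-group measurement divided by that of the vehicle-treated control group.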
# [1] = dose: 50.0 mg/kg/injection, schedule: Q01DX009 (ip), vehicle: saline
# [2] = dose: 100.0 mg/kg/injection, schedule: Q01DX009 (ip), vehicle: saline
# [3] = dose: 200.0 mg/kg/injection, schedule: Q01DX009 (ip), vehicle: saline
# [4] = dose: 50.0 mg/kg/injection, schedule: Q01DX005 (ip), vehicle: Klucel (hydroxypropylcellulose) (HPC)
# [5] = dose: 100.0 mg/kg/injection, schedule: Q01DX005 (ip), vehicle: Klucel (hydroxypropylcellulose) (HPC)
# [6] = dose: 200.0 mg/kg/injection, schedule: Q01DX005 (ip), vehicle: Klucel (hydroxypropylcellulose) (HPC)
# [7] = dose: 100.0 mg/kg/injection, schedule: Q04DX003 (ip), vehicle: saline with Tween-80
# [8] = dose: 200.0 mg/kg/injection, schedule: Q04DX003 (ip), vehicle: saline with Tween-80
# [9] = dose: 400.0 mg/kg/injection, schedule: Q04DX003 (ip), vehicle: saline with Tween-80
# [10] = dose: 6.25 mg/kg/injection, schedule: Q01DX009 (ip), vehicle: saline with Tween-80
# [11] = dose: 12.5 mg/kg/injection, schedule: Q01DX009 (ip), vehicle: saline with Tween-80
# [12] = dose: 25.0 mg/kg/injection, schedule: Q01DX009 (ip), vehicle: saline with Tween-80
# [13] = dose: 50.0 mg/kg/injection, schedule: Q01DX005 (ip), vehicle: saline with Tween-80
# [14] = dose: 100.0 mg/kg/injection, schedule: Q01DX005 (ip), vehicle: saline with Tween-80
# [15] = dose: 200.0 mg/kg/injection, schedule: Q01DX005 (ip), vehicle: saline with Tween-80
smiles,measurement,setting,value
O=C1c2ccccc2C(=O)N1C[P+](c1ccccc1)(c1ccccc1)c1ccccc1,T/C,"dose: 0.78 mg/kg/injection, schedule: Q01DX009 (ip), vehicle: water",102 % of control
same,T/C,"dose: 1.56 mg/kg/injection, schedule: Q01DX009 (ip), vehicle: water",106 % of control
same,T/C,"dose: 3.13 mg/kg/injection, schedule: Q01DX009 (ip), vehicle: water",106 % of control
same,T/C,"dose: 5.56 mg/kg/injection, schedule: Q01DX009 (ip), vehicle: water",123 % of control
same,T/C,"dose: 25.0 mg/kg/injection, schedule: Q01DX009 (ip), vehicle: water",98 % of control
Cc1[nH]ccc(=O)c1O,T/C,"dose: 16.0 mg/kg/injection, schedule: Q01DX009 (ip), vehicle: saline with Tween-80",105 % of control
same,T/C,"dose: 32.0 mg/kg/injection, schedule: Q01DX009 (ip), vehicle: saline with Tween-80",110 % of control
same,T/C,[1],123 % of control
same,T/C,[2],124 % of control
same,T/C,[3],153 % of control
same,T/C,"dose: 400.0 mg/kg/injection, schedule: Q01DX009 (ip), vehicle: saline",98 % of control
same,T/C,"dose: 512.0 mg/kg/injection, schedule: Q01DX009 (ip), vehicle: saline with Tween-80",91 % of control
O=NN(CCCl)C(=O)Nc1cc(Cl)ccc1O,T/C,"dose: 50.0 mg/kg/injection, schedule: Q01DX009 (ip), vehicle: saline with Tween-80",150 % of control
same,T/C,"dose: 50.0 mg/kg/injection, schedule: Q04DX003 (ip), vehicle: saline with Tween-80",122 % of control
Cc1nc2c(cnn2CN2CCCCC2)c(=O)n1-c1ccccc1,T/C,[4],100 % of control
same,T/C,[5],101 % of control
same,T/C,[6],107 % of control
O=[N+]([O-])c1c(Nc2ccccc2)ncnc1Nc1ccccc1,T/C,[7],105 % of control
same,T/C,[8],106 % of control
same,T/C,[9],100 % of control
CCOCN(COCC)C(C)Cc1ccccc1 (configuration not stated),T/C,"dose: 3.13 mg/kg/injection, schedule: Q01DX009 (ip), vehicle: saline with Tween-80",104 % of control
same,T/C,[10],107 % of control
same,T/C,[11],114 % of control
same,T/C,[12],123 % of control
O=C(CSC1CCc2ccccc21)N/N=C/c1ccccc1O (configuration not stated),T/C,[4],96 % of control
same,T/C,[5],98 % of control
same,T/C,[6],89 % of control
Cc1cccc(NC(N)=S)n1,T/C,"dose: 12.5 mg/kg/injection, schedule: Q01DX009 (ip), vehicle: other",108 % of control
same,T/C,"dose: 25.0 mg/kg/injection, schedule: Q01DX009 (ip), vehicle: other",98 % of control
same,T/C,"dose: 50.0 mg/kg/injection, schedule: Q01DX009 (ip), vehicle: other",115 % of control
same,T/C,"dose: 100.0 mg/kg/injection, schedule: Q01DX009 (ip), vehicle: other",119 % of control
OCC1OC(n2nc(Cl)c3ccccc32)C(O)C1O (configuration not stated),T/C,[10],102 % of control
same,T/C,[11],98 % of control
same,T/C,[12],94 % of control
same,T/C,"dose: 32.0 mg/kg/injection, schedule: Q01DX002 (ip), vehicle: saline with Tween-80",104 % of control
same,T/C,"dose: 64.0 mg/kg/injection, schedule: Q01DX002 (ip), vehicle: saline with Tween-80",106 % of control and 107 % of control
same,T/C,"dose: 100.0 mg/kg/injection, schedule: Q01DX009 (ip), vehicle: saline with Tween-80",91 % of control
same,T/C,"dose: 128.0 mg/kg/injection, schedule: Q01DX002 (ip), vehicle: saline with Tween-80",106 % of control and 107 % of control
Cc1ccc(C(=O)OC(C(=O)O)C(OC(=O)c2ccc(C)cc2)C(=O)O)cc1 (configuration not stated) (tested in a mixture with another compound),T/C,"dose: 5.25 mg/kg/injection, schedule: Q01DX005 (ip), vehicle: Klucel (hydroxypropylcellulose) (HPC)",105 % of control
same,T/C,"dose: 10.5 mg/kg/injection, schedule: Q01DX005 (ip), vehicle: Klucel (hydroxypropylcellulose) (HPC)",107 % of control
same,T/C,"dose: 21.0 mg/kg/injection, schedule: Q01DX005 (ip), vehicle: Klucel (hydroxypropylcellulose) (HPC)",105 % of control
same,T/C,"dose: 42.0 mg/kg/injection, schedule: Q01DX005 (ip), vehicle: Klucel (hydroxypropylcellulose) (HPC)",100 % of control
COC(=O)C(N)CN (configuration not stated),T/C,"dose: 43.75 mg/kg/injection, schedule: Q01DX009 (ip), vehicle: saline with Tween-80",97 % of control
same,T/C,"dose: 87.5 mg/kg/injection, schedule: Q01DX009 (ip), vehicle: saline with Tween-80",97 % of control
same,T/C,"dose: 175.5 mg/kg/injection, schedule: Q01DX009 (ip), vehicle: saline with Tween-80",97 % of control
COc1ccc(/C(=N\O)c2nccc3cc(OC)c(OC)cc23)cc1OC,T/C,"dose: 15.0 mg/kg/injection, schedule: Q01DX005 (ip), vehicle: saline with Tween-80",116 % of control
same,T/C,"dose: 30.0 mg/kg/injection, schedule: Q01DX005 (ip), vehicle: saline with Tween-80",105 % of control
same,T/C,"dose: 60.0 mg/kg/injection, schedule: Q01DX005 (ip), vehicle: saline with Tween-80",99 % of control and 92 % of control
O=C(Nc1ccc(Cl)c(Cl)c1)OCc1ccco1,T/C,"dose: 60.0 mg/kg/injection, schedule: Q01DX005 (ip), vehicle: Klucel (hydroxypropylcellulose) (HPC)",105 % of control
same,T/C,"dose: 120.0 mg/kg/injection, schedule: Q01DX005 (ip), vehicle: Klucel (hydroxypropylcellulose) (HPC)",105 % of control
Cc1nc2ccccc2c(=O)n1C(C)C,T/C,[1],99 % of control
same,T/C,[2],100 % of control
same,T/C,[3],104 % of control
CN(C)c1ccc(/C=C/C=C2C(=O)NC(=S)NC2=O)cc1,T/C,"dose: 100.0 mg/kg/injection, schedule: Q04DX002 (ip), vehicle: Klucel (hydroxypropylcellulose) (HPC)",89 % of control
same,T/C,"dose: 200.0 mg/kg/injection, schedule: Q04DX002 (ip), vehicle: Klucel (hydroxypropylcellulose) (HPC)",92 % of control
same,T/C,"dose: 400.0 mg/kg/injection, schedule: Q04DX002 (ip), vehicle: Klucel (hydroxypropylcellulose) (HPC)",87 % of control
CN(C)Nc1ncnc2c1ncn2C,T/C,[13],103 % of control
same,T/C,[14],100 % of control
same,T/C,[15],97 % of control
Cn1cc(/C=C/[N+](=O)[O-])c2ccccc21,T/C,"dose: 100.0 mg/kg/injection, schedule: Q04DX003 (ip), vehicle: Klucel (hydroxypropylcellulose) (HPC)",105 % of control
same,T/C,"dose: 200.0 mg/kg/injection, schedule: Q04DX003 (ip), vehicle: Klucel (hydroxypropylcellulose) (HPC)",99 % of control
same,T/C,"dose: 400.0 mg/kg/injection, schedule: Q04DX003 (ip), vehicle: Klucel (hydroxypropylcellulose) (HPC)",100 % of control
O=C(Cc1ccccc1)c1ccccc1,T/C,[7],98 % of control
same,T/C,[8],100 % of control
same,T/C,[9],100 % of control
CCCOC(=O)c1ccc2nc(NC(=O)OC)[nH]c2c1,T/C,[13],96 % of control
same,T/C,[14],91 % of control
same,T/C,[15],97 % of control
COc1ccc(N=C(C)c2c(O)n(-c3ccccc3)[nH]c2=O)cc1,T/C,[4],101 % of control
same,T/C,[5],104 % of control
same,T/C,[6],99 % of control
NC(C[P+](=O)O)C(=O)O (configuration not stated),T/C,"dose: 18.75 mg/kg/injection, schedule: Q01DX005 (ip), vehicle: water",103 % of control
same,T/C,"dose: 37.5 mg/kg/injection, schedule: Q01DX005 (ip), vehicle: water",111 % of control
same,T/C,"dose: 75.0 mg/kg/injection, schedule: Q01DX005 (ip), vehicle: water",91 % of control
same,T/C,"dose: 150.0 mg/kg/injection, schedule: Q01DX005 (ip), vehicle: water",87 % of control
Nc1ncc(Cl)c2ccccc12,T/C,"dose: 6.25 mg/kg/injection, schedule: Q01DX005 (ip), vehicle: saline with Tween-80",99 % of control
same,T/C,"dose: 12.5 mg/kg/injection, schedule: Q01DX005 (ip), vehicle: saline with Tween-80",97 % of control
same,T/C,"dose: 25.0 mg/kg/injection, schedule: Q01DX005 (ip), vehicle: saline with Tween-80",89 % of control
same,T/C,[13],101 % of control
c1ccc(C[N+]23CCN(CC2)CC3)cc1,T/C,"dose: 12.5 mg/kg/injection, schedule: Q04DX003 (ip), vehicle: saline",109 % of control
same,T/C,"dose: 25.0 mg/kg/injection, schedule: Q04DX003 (ip), vehicle: saline",95 % of control
same,T/C,"dose: 50.0 mg/kg/injection, schedule: Q04DX003 (ip), vehicle: saline",90 % of control
CCCCCNc1ncnc2c(C)[nH]nc12,T/C,"dose: 12.5 mg/kg/injection, schedule: Q01DX005 (ip), vehicle: Klucel (hydroxypropylcellulose) (HPC)",105 % of control
same,T/C,"dose: 25.0 mg/kg/injection, schedule: Q01DX005 (ip), vehicle: Klucel (hydroxypropylcellulose) (HPC)",98 % of control
same,T/C,[4],91 % of control
same,T/C,[5],90 % of control
same,T/C,[6],90 % of control
